For assay [1], the target named is T1, human Drp1 isoform 3 (Homo sapiens, UniProt O00429).
T1 construct: His tag; made in house; host or cells: E. coli Rosetta (DE3), pET21b vector
Briefly: Surface plasmon resonance (SPR) binding. To be noted: human Drp1 isoform 3, 25 °C, 2% DMSO. On the procedure:
The recombinant human Drp1 protein (His-tagged human Drp1 isoform 3, kindly provided by Professor Michael Ryan, Monash University, Australia) was generated as described previously. Briefly, cDNA for human Drp1 (isoform 3) was cloned into pET21b vector and transformed in Rosetta (DE3) competent cells (Novagen, MA, Merck Millipore). Transformed cells were propagated in Luria–Bertani broth and protein expression was initiated by the addition of 0.5 mM isopropyl β-D-1-thiogalactopyranoside. […]
All SPR experiments were performed on a Biacore T200 instrument (GE Healthcare Life Sciences, Uppsala, Sweden) at 25 °C in the presence of HEPES buffered saline containing 20 mM phosphate (pH 7.5), 137 mM NaCl, 2.7 mM KCl and 0.05% Tween-20 (HBS + P). […] Sensor surface was activated with 1:1 mixture of 0.4 M EDC and 0.1 M NHS for 7 min, followed by incremental injections of the protein to reach ~ 8000 RU (flow rate 10 μL/minute) for a calculated maximum analyte binding capacity (Rmax) of 30–50 RU. […]
Compounds were dissolved in 100% dimethyl sulfoxide (DMSO) and then added to HBS + P at a final DMSO concentration of 2%. […] SPR results were analysed using the Biacore T200 Evaluation Software v.1.
A general note: SPR reads the build-up and loss of mass on a sensor chip optically.

Assay [2] concerns the target T1, human Drp1 isoform 3. Nature of the assay: Drp1 GTPase activity, colorimetric malachite green assay. The class given is biochemical. On the procedure: The GTPase activity of Drp1, which is required for the latter to mediate mitochondrial fission, was examined using the colorimetric GTPase assay kit (Innova Biosciences, Cambridge, UK) according to the manufacturer’s instructions. Compounds were diluted in DMSO (all with a final concentration of 0.1% DMSO). Recombinant human Drp1 protein isoform-3 (final concentration 0.25 ng/µL) was diluted in assay buffer containing 50 mM Tris HCl (pH 7.5) and 2.5 mM MgCl2, followed by incubation with compounds for 15 min at 37 °C in a 96 well plate. 0.5 mM GTP, diluted in assay buffer, was then added into the mixture followed by incubation at 37 °C for 30 min.
Upon binding to Drp1, GTP is hydrolysed into GDP and free phosphate (Pi)[24]. Therefore, the degree of GTPase inhibition was assessed by measuring the concentration of Pi released into the assay buffer, which is detected by a malachite green-based dye. The intensity of Pi-dye complex was assessed by measuring the light absorbance at 635 nm wavelength using a microplate reader (BenchMark Plus, MS, USA). Absorbance of each experimental group was normalised to the vehicle control (DMSO).

The subject of a further assay is Drp1 wild type MEFs. Nature of the assay: Mitochondrial morphology analysis in Drp1 wild type MEF. The class given is cell-based, mouse. To be noted: statistical significance at 10 and 50 µM. The protocol: Human foreskin fibroblasts and Drp1 wildtype and KO MEF (kindly provided by Professor Hiromi Sesaki, Johns Hopkins University, USA)[28],[29] were transduced with pAS2.EYFP.puro lentiviruses (RNAiCore, Academia Sinica, Taiwan) carrying the mitochondrial-targeted EGFP sequence as described in Kalkhoran et al.[30]. Cells were then treated with DRP1i27 (5, 10 or 50 µM) or 0.1% DMSO vehicle control for 24 h.
Mitochondrial morphology in HL-1 cells were visualised by immunostaining of mitochondrial Hsp60 antibody (Abcam, MA, USA). Images were acquired using Olympus BX60 fluorescence microscope at 600 × magnification and analysed using Fiji imaging software (ImageJ v1.53c). Cells were categorised into predominantly (> 50%) having fused or fragmented mitochondria. At least 100 cells were analysed for each treatment group.

Where “and” joins values, the source holds several entries; their conditions need not be identical. Identical values can stand only once.

The term Kd denotes a measure of binding affinity in units of concentration. Lower therefore signals a tighter complex.

T1 sequence (O00429 1-699 isoform O00429-4): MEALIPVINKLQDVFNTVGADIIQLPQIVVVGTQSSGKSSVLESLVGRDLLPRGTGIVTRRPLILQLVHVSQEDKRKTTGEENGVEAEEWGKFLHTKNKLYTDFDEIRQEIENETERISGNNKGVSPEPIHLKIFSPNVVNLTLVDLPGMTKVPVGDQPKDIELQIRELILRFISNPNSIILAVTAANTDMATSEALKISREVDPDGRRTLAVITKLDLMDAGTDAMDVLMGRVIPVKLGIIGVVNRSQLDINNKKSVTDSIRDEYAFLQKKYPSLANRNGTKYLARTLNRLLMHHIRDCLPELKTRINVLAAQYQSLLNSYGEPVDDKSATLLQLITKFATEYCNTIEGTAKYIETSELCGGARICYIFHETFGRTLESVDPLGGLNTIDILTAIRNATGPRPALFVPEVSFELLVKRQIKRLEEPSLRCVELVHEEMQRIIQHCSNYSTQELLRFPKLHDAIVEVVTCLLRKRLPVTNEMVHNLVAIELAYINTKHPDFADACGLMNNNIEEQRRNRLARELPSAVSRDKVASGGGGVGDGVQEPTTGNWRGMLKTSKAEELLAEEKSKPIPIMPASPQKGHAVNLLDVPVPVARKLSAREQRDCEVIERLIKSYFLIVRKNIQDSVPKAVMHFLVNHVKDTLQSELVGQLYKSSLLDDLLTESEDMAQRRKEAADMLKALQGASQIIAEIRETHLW

Take `Cc1nc[nH]c1CN1C[C@@H]2CC[C@H](C1)N(Cc1ccc(-c3cc[nH]n3)o1)C2` [DRP1i27]: the Kd on human Drp1 isoform 3 [1] was 286 µM and 287 µM. In addition, on human Drp1 isoform 3 [2] (5 µM), the “inhibition of GTPase activity of human Drp1” value is recorded as “statistically significant reduction”. Further, the “inhibition of the conversion of GTP to GDP” value on human Drp1 isoform 3 [2] (5–50 µM) was “trend of inhibition”. In addition, the “cellular networks of mitochondria” value in the assay on Drp1 wild type MEFs is listed as “dose-dependent response”.

The values above are taken from publication PMC9747717, “A novel small molecule inhibitor of human Drp1” (Scientific Reports, 2022).
